US4435404A, “Carbostyril derivatives” (priority 1980, dated 1984)
Like-named read-outs stand apart in the source and are kept apart here.

Assays:
[1] = test system: ADP-induced aggregation in rabbit platelet; experiment: Inhibition effect on ADP-induced aggregation in rabbit platelet; type: cell-based; conditions: for inhibition at 100 µM / inhibition at 10 µM / inhibition at 1 µM / inhibition at 0.1 µM: Oryctolagus cuniculus, Platelet; for inhibition at 10 µM / inhibition at 1 µM / inhibition at 0.1 µM: read-out: Inhibition effect on ADP-induced aggregation; for inhibition at 0.1 µM: concentration of the test compound solution 10^-7 mole
Experimental: (§1) The platelet aggregation inhibitory effect is measured by using AG-II aggregometer (manufactured by Bryston Manufacturing Co.). The blood sample used for the test is a 1/9 (by volume) mixture of sodium citrate and whole blood collected from rabbit. Said sample is subjected to 10-minute centrifugal separation at 1,000 r.p.m. to obtain a platelet rich plasma (PRP). The thus obtained PRP is separated, and the remaining blood sample is further subjected to 15-minute centrifugal separation at 3,000 r.p.m. to obtain a platelet poor plasma (PPP).
(§2) The number of platelets in the PRP is counted by the Brecher-Clonkite Method, and the PRP is diluted with the PPP to prepare a PRP sample with platelet concentration of 300,000/mm^3 for the adenosine diphosphate (ADP)-induced aggregation test. There is also prepared a PRP sample with platelet concentration of 450,000/mm^3 for the collagen-induced aggregation test.
(§3) 0.6 Milliliter of said PRP sample is added into 0.01 ml of a solution of a test compound of a predetermined concentration and the mixture is placed in a 37° C. thermostat for one minute. Then 0.07 ml of an ADP or collagen solution is added to the mixture. Transmittance of this mixture is determined and the change of transmittance is recorded by using the aggregometer at stirrer speed of 1,100 r.p.m. […] The ADP solution is adjusted to a concentration of 7.5×10^-5 M, and the collagen solution is prepared by triturating 100 mg of collagen with 5 ml of said buffer and the supernatant is used as collagen inducer. Acetylsalicylic acid is used as control for the ADP-induced aggregation test and the collagen-induced aggregation test, respectively. The platelet aggregation inhibitory effect is measured in terms of percent inhibition with respect to the aggregation rate of the controls. The aggregation rate is calculated from the following formula:
(§4) Aggregation rate=[(c-a)/(b-a)]×100
(§5) b: transmittance of PRP containing a test compound and an aggregation inducer

[2] = Acute Toxicity Test; conditions: mouse, in vivo; male mice, oral administration
Experimental: The test compounds were administered orally to the mice and LD50 (mg/kg) of the compounds was determined.

[3] = test system: collagen-induced aggregation in rabbit platelet; experiment: Inhibition effect on collagen-induced aggregation in rabbit platelet; type: cell-based; conditions: for inhibition at 10 µM / inhibition at 1 µM / inhibition at 0.1 µM / inhibition at 100 µM: Oryctolagus cuniculus, Platelet, read-out: Inhibition effect on collagen-induced aggregation
Experimental: as §1, §2, §3, §4, §5

[4] = concentration of the test compound solution 10^-4 mole
[5] = concentration of the test compound solution 10^-5 mole
[6] = concentration of the test compound solution 10^-6 mole
[7] = concentration of the test compound solution 10^-7 mole

CCC(O)CN(C(=O)CCCCOc1ccc2[nH]c(=O)ccc2c1)C1CCCCCCC1 (centres unmarked) [No. 9, 6-{4-[N-(2-Hydroxybutyl)-N-cyclooctylaminocarbonyl]butoxy}carbostyril]
inhibition at 100 µM [1, 4]: 100% | inhibition at 10 µM [1, 5]: 84.9% | inhibition at 1 µM [1, 6]: 40.1% | inhibition at 0.1 µM [1]: 5.6% | LD50 [2]: > 1000 mg/kg | inhibition at 10 µM [3, 5]: 100% | inhibition at 1 µM [3, 6]: 100% | inhibition at 0.1 µM [3, 7]: 43.2%

O=C1CCc2cc(OCCCC(=O)N(C3CCCCC3)C3CCCCC3Cl)ccc2N1 (centres unmarked) [No. 30, 6-{3-[N--Cyclohexyl-N--(2-chlorocyclohexyl)-aminocarbonyl]propoxy}-3,4-dihydrocarbostyril, reference compound]
Inhibition effect on ADP-induced aggregation [1, 4]: 89.8% | Inhibition effect on ADP-induced aggregation [1, 5]: 82.9% | Inhibition effect on ADP-induced aggregation [1, 6]: 38.4% | Inhibition effect on collagen-induced aggregation [3, 4]: 91.5% | Inhibition effect on collagen-induced aggregation [3, 5]: 89.9% | Inhibition effect on collagen-induced aggregation [3, 6]: 50.3%

CC(=O)OCCCN(CC1CCCCO1)C(=O)CCCCOc1ccc2c(c1)CCC(=O)N2 (centres unmarked) [No. 21, 6-{4-[N-(3-Acetyloxypropyl)-N-(2-tetrahydropyranylmethyl)aminocarbonyl]butoxy}-3,4-dihydrocarbostyril]
inhibition at 100 µM [1, 4]: 100% | inhibition at 10 µM [1, 5]: 60.6% | inhibition at 1 µM [1, 6]: 18.6% | LD50 [2]: > 1000 mg/kg | inhibition at 10 µM [3, 5]: 82.9% | inhibition at 1 µM [3, 6]: 34.2%

O=C1CCc2cc(OCCCC(=O)Nc3c(Cl)cccc3Cl)ccc2N1 [No. 44, 6-[3-(o,o-Dichloroanilinocarbonyl)propoxy]-3,4-dihydrocarbostyril, reference compound]
inhibition at 100 µM [1, 4]: 36.8% | inhibition at 10 µM [1, 5]: 5.3% | inhibition at 100 µM [3, 4]: 95.1% | inhibition at 10 µM [3, 5]: 27.6%

COCCN(C(=O)CCCCOc1ccc2[nH]c(=O)ccc2c1)C1CCCCC1 [No. 23, 6-{4-[N-(2-Methoxyethyl)-N-cyclohexylaminocarbonyl]butoxy}carbostyril]
inhibition at 100 µM [1, 4]: 100% | inhibition at 10 µM [1, 5]: 100% | inhibition at 1 µM [1, 6]: 91.9% | inhibition at 0.1 µM [1]: 40.4% | LD50 [2]: > 1000 mg/kg | inhibition at 10 µM [3, 5]: 100% | inhibition at 1 µM [3, 6]: 90.5% | inhibition at 0.1 µM [3, 7]: 67%

O=C1CCc2cc(OCCCCC(=O)N(CCCCO)CC3CCCCC3)ccc2N1 [No. 8, 6-{4-[N-(4-Hydroxybutyl)-N-cyclohexylmethylaminocarbonyl]butoxy}-3,4-dihydrocarbostyril]
inhibition at 100 µM [1, 4]: 100% | inhibition at 10 µM [1, 5]: 72.1% | inhibition at 1 µM [1, 6]: 12.2% | LD50 [2]: > 1000 mg/kg | inhibition at 10 µM [3, 5]: 100% | inhibition at 1 µM [3, 6]: 10.2%

COc1ccc(CCN(CCO)C(=O)CCCCOc2ccc3[nH]c(=O)ccc3c2)cc1OC [No. 20, 6-{4-[N-(2-Hydroxyethyl)-N-(β-3,4-dimethoxyphenethyl)aminocarbonyl]butoxy}carbostyril]
inhibition at 100 µM [1, 4]: 100% | inhibition at 10 µM [1, 5]: 73.2% | inhibition at 1 µM [1, 6]: 28.8% | LD50 [2]: > 1000 mg/kg | inhibition at 10 µM [3, 5]: 82.6% | inhibition at 1 µM [3, 6]: 29.2%

CN(Cc1cccs1)C(=O)CCCOc1ccc2[nH]c(=O)ccc2c1 [No. 5, 6-{3-[N-Methyl-N-(2-thienylmethyl)aminocarbonyl]propoxy}carbostyril]
inhibition at 100 µM [1, 4]: 100% | inhibition at 10 µM [1, 5]: 54.7% | inhibition at 1 µM [1, 6]: 7.1% | LD50 [2]: > 1000 mg/kg | inhibition at 100 µM [3, 4]: 85.7% | inhibition at 10 µM [3, 5]: 30.7%

O=C(CCCOc1ccc2[nH]c(=O)ccc2c1)N(CCO)C1CCCC(O)C1 (centres unmarked) [No. 19, 6-{3-[N-(2-Hydroxyethyl)-N-(3-hydroxycyclohexyl)aminocarbonyl]propoxy}carbostyril]
inhibition at 100 µM [1, 4]: 100% | inhibition at 10 µM [1, 5]: 63.2% | inhibition at 1 µM [1, 6]: 12% | LD50 [2]: > 1000 mg/kg | inhibition at 10 µM [3, 5]: 95.3% | inhibition at 1 µM [3, 6]: 47.5%

CC(=O)Oc1ccccc1C(=O)O [No. 69, Aspirin, reference compound]
inhibition at 1 µM [3]: 7% | inhibition at 10 µM [3]: 9% | inhibition at 100 µM [3]: 65%

O=C1CCc2cc(OCCCC(=O)N3CCN(c4ccccc4)CC3)ccc2N1 [No. 17, 6-[3-(4-Phenyl-1-piperazinylcarbonyl)propoxy]-3,4-dihydrocarbostyril]
inhibition at 100 µM [1, 4]: 100% | inhibition at 10 µM [1, 5]: 25.1% | inhibition at 1 µM [1, 6]: 4.3% | LD50 [2]: > 1000 mg/kg | inhibition at 10 µM [3, 5]: 37.8% | inhibition at 1 µM [3, 6]: 3.4%

O=C1CCc2cc(OCCCCC(=O)N(CCO)CC3CCCCO3)ccc2N1 (centres unmarked) [No. 13, 6-{4-[N-(2-Hydroxyethyl)-N-(2-tetrahydropyranylmethyl)aminocarbonyl]butoxy}-3,4-dihydrocarbostyril]
inhibition at 100 µM [1, 4]: 100% | inhibition at 10 µM [1, 5]: 30.1% | inhibition at 1 µM [1, 6]: 5.3% | LD50 [2]: > 1000 mg/kg | inhibition at 10 µM [3, 5]: 81.7% | inhibition at 1 µM [3, 6]: 5.2%

O=C(CCCOc1ccc2[nH]c(=O)ccc2c1)N1CCC(c2ccccc2)CC1 [No. 16, 6-[3-(4-Phenyl-1-piperidylcarbonyl)propoxy]carbostyril]
inhibition at 100 µM [1, 4]: 100% | inhibition at 10 µM [1, 5]: 27.9% | inhibition at 1 µM [1, 6]: 4.9% | LD50 [2]: > 1000 mg/kg | inhibition at 10 µM [3, 5]: 40.8% | inhibition at 1 µM [3, 6]: 7.7%

CC(C)NC(=O)CCOc1ccc2c(c1)CCC(=O)N2 [No. 64, 6-(N--Isopropylaminocarbonylethoxy)-3,4-dihydrocarbostyril, reference compound]
Inhibition effect on ADP-induced aggregation [1, 4]: 18% | Inhibition effect on ADP-induced aggregation [1, 5]: 13% | Inhibition effect on ADP-induced aggregation [1, 6]: 7% | Inhibition effect on collagen-induced aggregation [3, 4]: 17% | Inhibition effect on collagen-induced aggregation [3, 6]: 0% | Inhibition effect on collagen-induced aggregation [3, 7]: 0%

O=C1CCc2cc(OCC(=O)N3CCOCC3)ccc2N1 [No. 65, 6-(Morpholinocarbonylmethoxy)-3,4-dihydrocarbostyril, reference compound]
inhibition at 100 µM [1, 4]: 13% | inhibition at 10 µM [1, 5]: 6% | inhibition at 1 µM [1, 6]: 0% | inhibition at 100 µM [3, 4]: 5% | inhibition at 10 µM [3, 5]: 0% | inhibition at 1 µM [3, 6]: 0%

O=C1CCc2cc(OCCCCC(=O)N(CCO)c3ccccc3)ccc2N1 [No. 11, 6-{4-[N-(2-Hydroxyethyl)-N-phenylaminocarbonyl]butoxy}-3,4-dihydrocarbostyril]
inhibition at 100 µM [1, 4]: 100% | inhibition at 10 µM [1, 5]: 49.5% | inhibition at 1 µM [1, 6]: 22.4% | LD50 [2]: > 1000 mg/kg | inhibition at 10 µM [3, 5]: 100% | inhibition at 1 µM [3, 6]: 33.9%

O=C1CCc2cc(OCCCCC(=O)N(CCO)Cc3ccccc3)ccc2N1 [No. 22, 6-{4-[N-(2-Hydroxyethyl)-N-benzylaminocarbonyl]butoxy}-3,4-dihydrocarbostyril]
inhibition at 100 µM [1, 4]: 100% | inhibition at 10 µM [1, 5]: 63.2% | inhibition at 1 µM [1, 6]: 28.8% | LD50 [2]: > 1000 mg/kg | inhibition at 10 µM [3, 5]: 49.2% | inhibition at 1 µM [3, 6]: 16.1%

CCC(O)CN(CC1CCCCC1)C(=O)CCCCOc1ccc2c(c1)CCC(=O)N2 (centres unmarked) [No. 7, 6-{4-[N-(2-Hydroxybutyl)-N-cyclohexylmethylaminocarbonyl]butoxy}-3,4-dihydrocarbostyril]
inhibition at 100 µM [1, 4]: 100% | inhibition at 10 µM [1, 5]: 64.3% | inhibition at 1 µM [1, 6]: 18.6% | LD50 [2]: > 1000 mg/kg | inhibition at 10 µM [3, 5]: 100% | inhibition at 1 µM [3, 6]: 13.3%

O=C1CCc2cc(OCCCC(=O)N3CCN(C4CCCCC4)CC3)ccc2N1 [No. 18, 6-[3-(4-Cyclohexyl-1-piperazinylcarbonyl)propoxy]-3,4-dihydrocarbostyril]
inhibition at 100 µM [1, 4]: 100% | inhibition at 10 µM [1, 5]: 42.1% | inhibition at 1 µM [1, 6]: 7% | LD50 [2]: > 1000 mg/kg | inhibition at 10 µM [3, 5]: 45.6% | inhibition at 1 µM [3, 6]: 15.2%
